Reference: patent US20200121677A1, “SUBSTITUTED 6,7-DIHYDROPYRAZOLO[1,5-a]PYRAZINES AS NEGATIVE ALLOSTERIC MODULATORS OF MGLUR2 RECEPTORS” (Janssen Pharmaceutica NV, priority 2014, published 2020)
Read-outs that look alike come from different tables or passages of the source.

Experiments:
human mGlu2 receptor = human mGlu2 receptor (Homo sapiens, UniProt Q14416); assay: [35S]GTPγS binding assay, mGluR2 negative allosteric modulation (membranes from CHO cells transfected with human mGlu2 receptor, glutamate ~EC80 60 μM); conditions: for IC50: GTPγS - hmGluR2 anGT pIC50, membranes with human mGlu2 receptor, glutamate ~EC80 (60 μM), pIC50 = -log IC50 (M);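 for all read-outs here: membranes preincubated 30 min at 30 °C with compound plus glutamate, then [35S]GTPγS (0.1 nM) incorporation measured over another 30 min at 30 °C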
Chain of human mGlu2 receptor (Q14416 19-872): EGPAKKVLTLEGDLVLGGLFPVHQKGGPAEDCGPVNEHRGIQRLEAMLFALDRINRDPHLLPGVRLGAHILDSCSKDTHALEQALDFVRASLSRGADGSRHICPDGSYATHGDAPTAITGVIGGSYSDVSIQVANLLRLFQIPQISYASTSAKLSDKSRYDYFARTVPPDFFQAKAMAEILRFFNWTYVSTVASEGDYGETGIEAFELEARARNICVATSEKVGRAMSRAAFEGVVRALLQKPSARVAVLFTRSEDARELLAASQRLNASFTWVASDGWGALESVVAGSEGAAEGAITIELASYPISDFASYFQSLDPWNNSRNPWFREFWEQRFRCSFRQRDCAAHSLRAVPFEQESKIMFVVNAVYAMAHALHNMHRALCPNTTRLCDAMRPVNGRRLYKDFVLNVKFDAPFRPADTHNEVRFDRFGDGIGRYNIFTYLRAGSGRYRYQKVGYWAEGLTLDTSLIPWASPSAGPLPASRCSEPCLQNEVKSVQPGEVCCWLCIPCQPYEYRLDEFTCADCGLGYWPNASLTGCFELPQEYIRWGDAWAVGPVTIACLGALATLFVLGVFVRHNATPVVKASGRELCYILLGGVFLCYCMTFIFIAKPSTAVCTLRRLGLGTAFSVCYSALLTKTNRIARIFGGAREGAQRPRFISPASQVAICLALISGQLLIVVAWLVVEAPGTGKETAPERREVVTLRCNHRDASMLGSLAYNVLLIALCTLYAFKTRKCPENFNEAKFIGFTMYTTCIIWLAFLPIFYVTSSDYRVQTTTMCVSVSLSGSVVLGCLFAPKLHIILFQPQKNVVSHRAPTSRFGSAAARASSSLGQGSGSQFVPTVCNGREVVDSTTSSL
Description: The [^35S]GTPγS binding assay is a functional membrane-based assay used to study G-protein coupled receptor (GPCR) function whereby incorporation of a non-hydrolysable form of GTP, [^35S]GTPγS (guanosine 5′-triphosphate, labelled with gamma-emitting ^35S), is measured. […] Here we describe the use of the [^35S]GTPγS binding assay using membranes from cells transfected with the human mGlu2 receptor and adapted from Schaffhauser et al. (Molecular Pharmacology, 2003, 4:798-810) for the detection of the negative allosteric modulation (NAM) properties of the compounds of this invention.
CHO-cells were cultured to pre-confluence and stimulated with 5 mM butyrate for 24 h. Cells were then collected by scraping in PBS and cell suspension was centrifuged (10 min at 4000 RPM in benchtop centrifuge). Supernatant was discarded and pellet gently resuspended in 50 mM Tris-HCl, pH 7.4 by mixing with an Ultra Turrax homogenizer. The suspension was centrifuged at 12,400 RPM (Sorvall F14S-6x250Y) for 10 minutes and the supernatant discarded. The pellet was homogenized in 5 mM Tris-HCl, pH 7.4 using an Ultra Turrax homogenizer and centrifuged again (13,000 RPM, 20 min, 4° C.). The final pellet was resuspended in 50 mM Tris-HCl, pH 7.4 and stored at −80° C. in appropriate aliquots before use. Protein concentration was determined by the Bradford method (Bio-Rad, USA) with bovine serum albumin as standard.
Measurement of mGluR2 negative allosteric modulatory activity of test compounds was performed as follows. Test compounds and glutamate were diluted in assay buffer containing 10 mM HEPES acid, 10 mM HEPES salt, pH 7.4, 100 mM NaCl, 3 mM MgCl2 and 10 μM GDP. Human mGlu2 receptor-containing membranes were thawed on ice and diluted in assay buffer supplemented with 18 μg/ml saponin. Membranes were pre-incubated with compound together with a predefined (˜EC80) concentration of glutamate (60 μM) for 30 min at 30° C. After addition of [^35S]GTPγS (f.c. 0.1 nM), assay mixtures were shaken briefly and further incubated to allow [^35S]GTPγS incorporation on activation (30 minutes, 30° C.). Final assay mixtures contained 7 μg of membrane protein in 10 mM HEPES acid, 10 mM HEPES salt, pH 7.4, 100 mM NaCl, 3 mM MgCl2, 10 μM GDP and 10 μg/ml saponin. Total reaction volume was 200 μl. Reactions were terminated by rapid filtration through Unifilter-96 GF/B plates (Perkin Elmer, Massachusetts, USA) using a 96-well filtermate universal harvester. Filters were washed 6 times with ice-cold 10 mM NaH2PO4/10 mM Na2HPO4, pH 7.4. Filters were then air-dried, and 30 μl of liquid scintillation cocktail (Microscint-O) was added to each well. Membrane-bound radioactivity was counted in a Topcount.
Data were calculated as % of the control glutamate response, defined as the response that is generated upon addition of an EC80-equivalent concentration of glutamate.

[1] = read-out: GTPγS - hmGluR2 anGT Emax, relative maximal effect: maximal % inhibition relative to the control glutamate response

melting point	IC50 (human mGlu2 receptor)	Emax (human mGlu2 receptor; [1])	SMILES	Emax (human mGlu2 receptor; read-out: GTPγS - hmGluR2 anGT Emax)
204 °C	3.24e-09 M	107%	C[C@H]1CN(c2ccc(C(F)(F)F)c(F)c2)C(=O)c2c(C(=O)Nc3cncc(F)c3)cnn21 [compound 24]	–
191.5 °C	1.05e-08 M	107%	COc1cncc(NC(=O)c2cnn3c2C(=O)N(c2ccc(C(F)(F)F)c(OC)c2)C[C@@H]3C)c1 [compound 34]	–
204.6 °C	1.82e-08 M	113%	C[C@H]1CN(c2ccc(C(F)(F)F)cc2)C(=O)c2c(C(=O)NCC3CCC3)cnn21 [compound 58]	–
156.83 °C	2.34e-09 M	110%	Cc1cc(N2C[C@H](C)n3ncc(C(=O)Nc4cncc(F)c4C)c3C2=O)ccc1C(F)(F)F [compound 125]	–
204.9 °C	2.57e-08 M	109%	C[C@H]1CN(c2ccc(C(F)(F)F)cc2)C(=O)c2c(C(=O)Nc3ncco3)cnn21 [compound 139]	–
169.28 °C	8.13e-09 M	107%	C[C@H]1CN(c2ccc(C(F)(F)F)cc2)C(=O)c2c(C(=O)Nc3ccnc(CO)c3)cnn21 [compound 150]	–
208.2 °C	7.08e-08 M	111%	C[C@H]1CN(c2ccc(C(F)(F)F)cc2)C(=O)c2c(C(=O)NC3CCC3)cnn21 [compound 71]	–
201.6 °C	8.13e-09 M	116%	COc1cc(N2C[C@H](C)n3ncc(C(=O)Nc4cc(C)nc(C)c4)c3C2=O)ccc1C(F)(F)F [compound 143]	–
171.6 °C	2e-08 M	113%	Cc1ncccc1NC(=O)c1cnn2c1C(=O)N(c1ccc(C(F)(F)F)cc1)C[C@@H]2C [compound 10]	–
212.39 °C	9.77e-09 M	109%	COc1ccc(NC(=O)c2cnn3c2C(=O)N(c2ccc(C(F)(F)F)c(OC)n2)C[C@@H]3C)cc1 [compound 121]	–
172.9 °C	9.55e-10 M	128%	C[C@H]1CN(c2ccc(Cl)c(Cl)c2)C(=O)c2c(C(=O)Nc3cncc(F)n3)cnn21 [compound 146]	–
203.08 °C	1.55e-08 M	111%	COc1nc(N2C[C@H](C)n3ncc(C(=O)Nc4ccccc4)c3C2=O)ccc1Cl [compound 83, (7S)-5-(5-Chloro-6-methoxy-2-pyridyl)-7-methyl-4-oxo-N-phenyl-6,7-dihydropyrazolo[1,5-a]pyrazine-3-carboxamide]	–
104.2 °C	1.55e-06 M	104%	C[C@H]1CN(c2ccc(C(F)(F)F)cc2)C(=O)c2c(C(=O)NCc3ccc(N)nc3)cnn21 [compound 136, (7S)—N-[(6-Amino-3-pyridyl)methyl]-7-methyl-4-oxo-5-[4-(trifluoromethyl)phenyl]-6,7-dihydropyrazolo[1,5-a]pyrazine-3-carboxamide]	–
108.6 °C	2.75e-07 M	111%	C[C@H]1CN(c2ccc(C(F)(F)F)cc2)C(=O)c2c(C(=O)NC3COC3)cnn21 [compound 72]	–
248.3 °C	1.02e-07 M	104%	C[C@H]1CN(c2ccc(C(F)(F)F)cc2)C(=O)c2c(C(=O)Nc3ncccn3)cnn21 [compound 103]	–
159.8 °C	3.55e-08 M	103%	C[C@H]1CN(c2ccc(C(F)(F)F)cc2)C(=O)c2c(C(=O)NCC3CCCC3)cnn21 [compound 59]	–
164.7 °C	2.4e-07 M	109%	COc1cccnc1NC(=O)c1cnn2c1C(=O)N(c1ccc(C(F)(F)F)cc1)C[C@@H]2C [compound 11]	–
161.4 °C	4.37e-08 M	103%	C[C@H]1CN(c2ccc(C(F)(F)F)cc2)C(=O)c2c(C(=O)NCC3CC3)cnn21 [compound 60]	–
231.4 °C	7.76e-08 M	104%	C[C@H]1CN(c2ccc(C(F)(F)F)cc2)C(=O)c2c(C(=O)NCC3CCCO3)cnn21 (stereo partly drawn) [compound 62]	–
212.65 °C	1.66e-07 M	114%	CC(=O)NC(=O)c1cnn2c1C(=O)N(c1ccc(C(F)(F)F)cc1)C[C@@H]2C [compound 138]	–
68.3 °C	1.7e-07 M	107%	C[C@H]1CN(c2ccc(C(F)(F)F)cc2)C(=O)c2c(C(=O)NCC3CCOC3)cnn21 (stereo partly drawn) [compound 64]	–
209.8 °C	1.78e-07 M	107%	C[C@H]1CN(c2ccc(C(F)(F)F)cc2)C(=O)c2c(C(=O)NC3CCCCC3)cnn21 [compound 65]	–
213.44 °C	2.88e-09 M	106%	Cc1cc(NC(=O)c2cnn3c2C(=O)N(c2ccc(C(F)(F)F)c(Cl)c2)C[C@@H]3C)on1 [compound 128]	–
223.3 °C	4.57e-08 M	100%	Cc1ncc(NC(=O)c2cnn3c2C(=O)N(c2ccc(C(F)(F)F)cc2)C[C@@H]3C)cn1 [compound 99]	–
237.74 °C	4.07e-08 M	107%	C[C@H]1CN(c2ccc(C(F)(F)F)cc2)C(=O)c2c(C(=O)NC(=O)C3CCC3)cnn21 [compound 137, (7S)—N-(cyclobutanecarbonyl)-7-methyl-4-oxo-5-[4-(trifluoromethyl)phenyl]-6,7-dihydropyrazolo[1,5-a]pyrazine-3-carboxamide]	–
194.51 °C	7.76e-09 M	111%	COc1cccc(NC(=O)c2cnn3c2C(=O)N(c2ccc(C(F)(F)F)c(OC)n2)C[C@@H]3C)c1 [compound 119, (7S)—N-(3-Methoxyphenyl)-5-[6-methoxy-5-(trifluoromethyl)-2-pyridyl]-7-methyl-4-oxo-6,7-dihydropyrazolo[1,5-a]pyrazine-3-carboxamide]	–
211.11 °C	8.51e-10 M	110%	Cc1c(F)cncc1NC(=O)c1cnn2c1C(=O)N(c1ccc(Cl)c(Cl)c1)C[C@@H]2C [compound 130]	–

SMILES	melting point	IC50 (human mGlu2 receptor)	Emax (human mGlu2 receptor; [1])	Emax (human mGlu2 receptor; read-out: GTPγS - hmGluR2 anGT Emax)
C[C@H]1CN(c2ccc(C(F)(F)F)cc2)C(=O)c2c(C(=O)Nc3ccc(S(=O)(=O)F)cc3)cnn21 [compound 167]	205.04 °C	4.27e-08 M	–	107%
